According to patent US5472959A, “Carboxyalkyl derivatives useful as inhibitors of enkephalinase and ace” (Merrell Dow Pharmaceuticals Inc., priority 1994, dated 1995):

Legend:
Enkephalinase = target: T1, Enkephalinase (Rattus norvegicus, UniProt P07861); experiment: Enkephalinase inhibition, fluorometric assay with dansyl-D-AlaGly(p-nitro)PheGly; format: biochemical; settings: substrate of enkephalinase, 50 mM HEPES pH 7.4, 25° C.
T1 construct: Enkephalinase is partially purified from rat kidney; from tissue; host or cells: rat kidney (microvilli fraction), further purified by Mono Q anion exchange
T1 sequence (P07861 1-750): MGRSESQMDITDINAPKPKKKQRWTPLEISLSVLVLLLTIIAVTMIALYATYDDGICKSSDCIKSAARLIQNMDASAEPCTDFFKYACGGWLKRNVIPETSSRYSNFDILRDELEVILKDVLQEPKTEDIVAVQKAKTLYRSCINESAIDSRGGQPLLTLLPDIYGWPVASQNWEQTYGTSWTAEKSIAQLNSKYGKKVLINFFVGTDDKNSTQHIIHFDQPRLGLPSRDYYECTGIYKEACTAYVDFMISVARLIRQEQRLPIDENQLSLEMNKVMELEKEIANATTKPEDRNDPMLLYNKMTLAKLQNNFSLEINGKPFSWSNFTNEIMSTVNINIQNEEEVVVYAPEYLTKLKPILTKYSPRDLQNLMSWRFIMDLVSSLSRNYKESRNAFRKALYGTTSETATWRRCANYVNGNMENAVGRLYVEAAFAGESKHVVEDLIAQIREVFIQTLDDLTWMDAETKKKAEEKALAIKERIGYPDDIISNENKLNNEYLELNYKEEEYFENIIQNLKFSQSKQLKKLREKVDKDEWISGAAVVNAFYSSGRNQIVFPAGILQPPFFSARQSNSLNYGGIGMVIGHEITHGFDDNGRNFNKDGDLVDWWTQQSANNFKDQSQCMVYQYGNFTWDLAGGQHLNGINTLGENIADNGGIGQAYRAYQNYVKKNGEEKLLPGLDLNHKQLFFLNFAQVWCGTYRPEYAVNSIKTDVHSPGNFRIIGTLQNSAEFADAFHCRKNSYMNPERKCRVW
From the text: Enkephalinase is partially purified from rat kidney. The enzyme is extracted from the microvilli fraction by using Triton X-100 according to the method of Malfroy and Schwartz [Biol. Chem. 259, 14365-14370 (1984)] or by using a proteolytic treatment according to the method of Almenoff and Orlowski [Biochem. 22, 590-599 (1983)]. The enzyme is further purified by anion exchange chromatography (Mono Q™ column, Pharmacia) using a Pharmacia FPLC system. The enzyme activity may be measured by the fluorometric methods of Florentin et al. [
Anal. Biochem. 141, 62-69 (1984)] or of Almenoff and Orlowski [Neurochemistry 42, 151-157 (1984)]. The enzyme is assayed in 50 mM HEPES buffer (pH 7.4) in a 3.0 mL reaction volume containing 12 μM of the substrate dansyl-D-AlaGly(p-nitro)PheGly (Km =40μM) at 25° C. The substrate (and inhibitor) is added from a concentrated stock solution in DMSO (up to 0.1 mL DMSO final volume). The enzyme in a small volume (approximately 0.1 μg of FPLC purified protein) is added to initiate the reaction and the rate of fluorecense increase is recorded continuously using a fluorometer (excitation at 339 nm, emission at 562 nm).

[1] = Needleman, Hypertension 7, 469 (1985), cited from earlier work

Substance	Km (Enkephalinase) [µM]	binding affinity, lower end of range ([1]; affinities ranging from about) [pM]	binding affinity, upper end of range ([1]; affinities ranging to about) [nM]
dansyl-D-AlaGly(p-nitro)PheGly	40	–	–
ANP: family of naturally-occurring peptides which are involved in the homeostatic regulation of blood pressure, as well as sodium and water levels	–	≥ 50	≤ 500
